Results on four molecules are retold here after patent US11718618B2, “Substituted pyrido[2,1-a]isoquinolines as VMAT2 inhibitors” (priority 2021, dated 2023).

Molecules are shown by their SMILES. Some results are limits rather than exact numbers.

For one series, the system named is VMAT2. To be noted: Scherman et al. 1983; read-out: IC50, inhibition of catecholamine uptake by VMAT2; cited from earlier work.
The nature of series [1]: Stability of compounds in human liver microsomes. Format: in vitro ADME. To be noted: for CLint scaled at 0.5 μM / half-life at 0.5 μM: both sexes, pH 7.4; for CLint scaled at 0.5 μM: liver microsomes, calculated from HLM half-life, read-out: HLM Scaled Intrinsic Clearance; for CLint scaled at 0.5 μM / Predicted Max. Bioavailability (% F) / HLM Predicted Systemic Clearance: human; for half-life at 0.5 μM: 0.5 μM compound, 0.5 mg/mL human liver microsomes, 37° C., maxed at 420 minutes, read-out: HLM Elimination half-life (t1/2, min); for Predicted Max. Bioavailability (% F): predicted from HLM data; for HLM Predicted Systemic Clearance: scaled from HLM half-life (Obach method). A digest of the protocol: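 Compound at 0.5 μM incubated at 37 °C with pooled mixed-gender human liver microsomes (0.5 mg/mL protein) and an NADPH-generating system in pH 7.4 phosphate buffer, sampled 0–60 min. Parent depletion tracked by LC-MS/MS; t1/2 derived from the slope by non-linear regression, with predicted extraction ratio and maximum bioavailability also calculated.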

Another series has as its target human VMAT2 (Homo sapiens (Human), UniProt Q05940). The series can be described thus: VMAT2 radioligand binding, 3H-dihydrotetrabenazine competition on human platelet homogenate. The settings on record: 10 nM 3H-dihydrotetrabenazine, human platelet homogenate, 25° C., 90 minutes; read-out: VMAT2 Ki. A digest of the protocol: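 Human platelet homogenate (30 μg membrane protein/well) in DPBS with 1 mM EDTA, pH 7.4; twelve test-compound concentrations competed against 10 nM ³H-dihydrotetrabenazine. Incubated 90 min at 25 °C, bound radioligand collected by filtration on PEI-pretreated glass-fibre filters and counted by scintillation; Ki derived.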

The test system of a further series is male Sprague-Dawley rats. The series can be described thus: Open-field hypolocomotion / locomotor activity (LMA) assay. It is filed as in vivo. The settings on record: Rattus norvegicus, pre-treatment 60 or 120 minutes, beam breaks in 30 min, read-out: ED50, reduction of locomotor activity. As to the method:
The effect of VMAT2 inhibitors on dopamine depletion was measured using the locomotor activity (LMA) assay. Following a pre-treatment time of 60 or 120 minutes, male Sprague-Dawley rats (200-250 g) were placed in a clear cage surrounded by photocell detectors (San Diego Instruments). Rat locomotor activity was detected by breaks in the photocell beams and activity is defined as the number of beam breaks in 30 min. Data was analyzed by one-way analysis of variance (ANOVA; SigmaStat version 3.0.1, SPSS, Chicago, Ill.) followed by the Student Newman Keuls post-hoc test for significance.

For the next series, the system named is male Wistar rats. The experiment in a line: Conditioned avoidance response (CAR) assay of antipsychotic activity. Format: in vivo, rat. To be noted: for Avoidance and escape failures: 0.3 mg/kg, oral, Wistar rats; for ED50: Rattus norvegicus, read-out: ED50, conditioned avoidance response. As to the method: Animals: Adult male Wistar rats from Envigo (Indianapolis, Ind.) were used in this study. Rats were received at approximately 150 g, assigned unique identification numbers and group housed 2-3 per cage in ventilated cages. All rats were examined, handled, and weighed prior to initiation of the study to assure adequate health and suitability. During the course of the study, 12/12 light/dark cycles were maintained. The RT was maintained between 20° C. and 23° C. with a relative humidity around 50%. Chow and water were provided ad libitum for the duration of the study. All testing was conducted during the light cycle of the rats.
Compound 4-1 (0.03, 0.1, 0.3, and 1 mg/kg) was formulated in 0.25% methyl cellulose and administered orally at a dose volume of 3 mL/kg 120 minutes prior to test.
Compound 4-15 (0.03, 0.1, 0.3, and 1 mg/kg) was formulated in 0.25% methyl cellulose and administered orally at a dose volume of 3 mL/kg 120 minutes prior to test.
In the CAR paradigm, an animal is trained to respond to a conditioned stimulus (auditory and visual) by negative reinforcement (foot shock). Numerous studies have shown that typical and atypical antipsychotic drugs selectively suppress CAR, thus making it an ideal assay to screen potential antipsychotic compounds (Wadenberg & Hicks, Neuroscience and Biobehavioral Reviews, (1999) 23:851-862).
Rats were placed in the CAR two-way shuttle box and the training period of 20 trials ensued. A trial consisted of a 10-sec presentation of an 80 dB white noise followed by a scrambled 0.6 mA foot shock lasting up to 20 sec. The inter-trial interval ranged from 20-60 sec. The rat learned to avoid shock by moving from one compartment to the other when the cue is presented. […] The following measures were captured from the assay:
Avoidance response: If the rat moved from one compartment to the other during the cued-stimulus (CS) presentation. Decreased avoidance responding is the typical signature of an efficacious dose of an antipsychotic.
Avoidance response data were expressed as the number of avoidance responses as well as percent of avoidance responses based on the three baseline responses prior to drug test. Escape failures were expressed as the total number of failures during the test session.
Body weight and avoidance data were analyzed by analysis of variance (ANOVA) followed by Dunnett's post-hoc comparisons when appropriate. Escape failures were analyzed by Kruskal-Wallis nonparametric analysis followed by Dunn's post hoc comparisons when appropriate. Results are reported as mean SEM. An effect was considered statistically significant if p<0.05.

The conditions of series [2]: once formed, in patients administered (±)-TBZ; cited from earlier work.

Broadly, the IC50 is the midpoint of a concentration-inhibition curve. Turning to `COc1cc2c(cc1OC)C1CC(=O)C(CC(C)C)CN1CC2` (racemic) [(±)-TBZ, (±)-Tetrabenazine], in the series with VMAT2, the IC50 is […].

human VMAT2, sequence (Q05940 whole entry): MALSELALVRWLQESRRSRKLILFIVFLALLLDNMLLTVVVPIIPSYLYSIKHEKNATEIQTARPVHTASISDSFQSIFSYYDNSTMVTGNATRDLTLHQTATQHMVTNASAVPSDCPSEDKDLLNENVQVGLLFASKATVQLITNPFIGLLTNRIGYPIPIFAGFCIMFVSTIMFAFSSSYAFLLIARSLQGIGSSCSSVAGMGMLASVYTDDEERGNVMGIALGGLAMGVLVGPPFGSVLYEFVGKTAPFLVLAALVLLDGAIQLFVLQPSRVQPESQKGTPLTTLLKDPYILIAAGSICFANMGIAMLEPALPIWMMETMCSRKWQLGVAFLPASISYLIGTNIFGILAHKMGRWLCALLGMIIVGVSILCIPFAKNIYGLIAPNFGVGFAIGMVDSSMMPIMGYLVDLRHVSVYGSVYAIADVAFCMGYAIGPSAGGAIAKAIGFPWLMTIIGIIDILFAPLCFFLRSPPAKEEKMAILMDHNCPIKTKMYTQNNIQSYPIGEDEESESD

One may read the Ki as a measure of affinity in units of concentration, obtained from inhibition or displacement. As a reminder, the ED50 is the dose that gives a 50% effect, or the effect in half of the subjects. Take `COc1cc2c(cc1OCC(F)(F)F)CCN1C[C@@H](CC(C)(C)C)[C@H](O)C[C@H]21` [Compound 4-1, (2R,3R,11bR)-3-(2,2-dimethylpropyl)-10-methoxy-9-(2,2,2-trifluoroethoxy)-1H,2H,3H,4H,6H,7H,11bH-pyrido[2,1-a]isoquinolin-2-ol]: in series [1], the CLint scaled at 0.5 μM was not above 2.97 mL/min/kg, the half-life at 0.5 μM was not below 420 min, the “Predicted Max. Bioavailability (% F)” value is on record as not below 87 % F and the “HLM Predicted Systemic Clearance” value is not above 2.59 mL/min/kg. The inhibition constant (Ki) at human VMAT2 was found to be 2.4 nM. The median effective dose (ED50) with male Sprague-Dawley rats was determined as 0.24 mg/kg. For the same molecule, in the series with male Wistar rats, the “Avoidance and escape failures” value is on record as “reduction in avoidance without significant increase in escape failures”; the ED50 stood at 0.55 mg/kg.

Consider `COc1cc2c(cc1OCCC(F)(F)F)CCN1C[C@@H](CC(C)(C)C)[C@H](O)C[C@H]21` [Compound 4-15, (2R,3R,11bR)-3-(2,2-dimethylpropyl)-10-methoxy-9-(3,3,3-trifluoropropoxy)-1H,2H,3H,4H,6H,7H,11bH-pyrido[2,1-a]isoquinolin-2-ol], for which, in series [1], the CLint scaled at 0.5 μM was 4.05 mL/min/kg, the half-life at 0.5 μM came out at 308 min, the “Predicted Max. Bioavailability (% F)” value is 83 % F and the “HLM Predicted Systemic Clearance” value is 3.37 mL/min/kg. In addition, at human VMAT2, the Ki came out at 1.1 nM. In addition, the ED50 with male Sprague-Dawley rats worked out at 0.18 mg/kg. In addition, in the series with male Wistar rats, the “Avoidance and escape failures” value is on record as “reduction in avoidance without significant increase in escape failures”; the ED50 was determined as 0.44 mg/kg.

For `COc1cc2c(cc1OC)C1CC(O)C(CC(C)C)CN1CC2` (stereo not drawn) [[+]-beta-DHTBZ, 3-isobutyl-9,10-dimethoxy-1,3,4,6,7,11b-hexahydro-2H-pyrido[2,1-a]isoquinolin-2-ol], the half-life result in series [2] is listed as “approximately 5 hours”.
